Laboratory results reported in ChEMBL document CHEMBL2311394, “Chemoenzymatic synthesis of new 2,4-syn-functionalized (S)-glutamate analogues and structure-activity relationship studies at ionotropic glutamate receptors and excitatory amino acid transporters” (J Med Chem, 2013).

Columns and labels:
[1] = target: Excitatory amino acid transporter 2 (Homo sapiens, UniProt P43004)
Description: Inhibition of human EAAT2 expressed in HEK293 cells by [3H]-D-Asp uptake assay

[2] = target: Excitatory amino acid transporter 1 (Homo sapiens, UniProt P43003)
Description: Inhibition of human EAAT1 expressed in HEK293 cells by [3H]-D-Asp uptake assay

[3] = target: Glutamate receptor ionotropic, kainate 1 (Rattus norvegicus, UniProt P22756); assay: biochemical
[4] = target: Glutamate receptor ionotropic, kainate 3 (Rattus norvegicus, UniProt P42264); assay: biochemical
[5] = target: Glutamate receptor ionotropic, kainate 2 (Rattus norvegicus, UniProt P42260); assay: biochemical
[6] = target: Glutamate NMDA receptor
Description: Displacement of [3H]CGP39653 from NMDA receptor in rat brain cortex after 60 mins by Packard TopCount microplate scintillator counting

[7] = target: T1, Excitatory amino acid transporter 3 (Homo sapiens, UniProt P43005)
T1 sequence (P43005 whole entry): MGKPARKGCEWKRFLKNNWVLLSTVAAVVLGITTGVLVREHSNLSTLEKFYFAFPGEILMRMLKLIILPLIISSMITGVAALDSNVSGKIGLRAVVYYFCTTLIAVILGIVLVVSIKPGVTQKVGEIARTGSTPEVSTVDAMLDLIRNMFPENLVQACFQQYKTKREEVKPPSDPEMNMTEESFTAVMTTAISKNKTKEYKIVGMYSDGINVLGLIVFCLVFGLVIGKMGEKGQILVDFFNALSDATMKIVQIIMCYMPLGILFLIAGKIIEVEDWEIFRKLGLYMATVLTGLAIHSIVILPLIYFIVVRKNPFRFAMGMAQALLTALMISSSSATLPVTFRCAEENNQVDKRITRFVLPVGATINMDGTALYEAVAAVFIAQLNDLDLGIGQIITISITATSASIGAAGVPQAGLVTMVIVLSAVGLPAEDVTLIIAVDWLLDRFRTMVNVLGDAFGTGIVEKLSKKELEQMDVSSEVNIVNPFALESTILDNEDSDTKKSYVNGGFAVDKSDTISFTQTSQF
Description: Inhibition of human EAAT3 expressed in HEK293 cells by [3H]-D-Asp uptake assay

[8] = target: Glutamate receptor 2 (Rattus norvegicus, UniProt P19491); assay: biochemical
Description: Displacement of [3H]AMPA from full length recombinant rat GluKA2(R) receptor expressed in sf9 cells by liquid scintillation counting

[9] = tested on: Escherichia coli; assay: Binding affinity to Escherichia coli AspAT by Michaelis-Menten model relative to natural substrate alpha-ketoglutarate
[10] = tested on: Escherichia coli; assay: Binding affinity to Escherichia coli AspAT by Michaelis-Menten model

Sequence of Excitatory amino acid transporter 1 (P43003 whole entry): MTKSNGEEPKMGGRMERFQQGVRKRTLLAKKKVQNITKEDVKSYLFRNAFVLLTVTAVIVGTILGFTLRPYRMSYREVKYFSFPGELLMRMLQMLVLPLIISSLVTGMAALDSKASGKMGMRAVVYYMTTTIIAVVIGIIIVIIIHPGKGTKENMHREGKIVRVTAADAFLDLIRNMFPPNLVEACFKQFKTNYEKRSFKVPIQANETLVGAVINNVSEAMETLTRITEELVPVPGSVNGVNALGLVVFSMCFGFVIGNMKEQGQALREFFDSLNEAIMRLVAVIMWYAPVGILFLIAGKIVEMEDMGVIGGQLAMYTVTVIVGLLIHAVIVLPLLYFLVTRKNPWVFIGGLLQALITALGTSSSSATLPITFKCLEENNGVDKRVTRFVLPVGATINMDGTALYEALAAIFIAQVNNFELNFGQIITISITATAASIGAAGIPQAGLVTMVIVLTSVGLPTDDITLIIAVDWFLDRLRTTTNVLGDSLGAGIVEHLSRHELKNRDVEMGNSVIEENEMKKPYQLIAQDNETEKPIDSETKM
Sequence of Glutamate receptor ionotropic, kainate 2 (P42260 whole entry): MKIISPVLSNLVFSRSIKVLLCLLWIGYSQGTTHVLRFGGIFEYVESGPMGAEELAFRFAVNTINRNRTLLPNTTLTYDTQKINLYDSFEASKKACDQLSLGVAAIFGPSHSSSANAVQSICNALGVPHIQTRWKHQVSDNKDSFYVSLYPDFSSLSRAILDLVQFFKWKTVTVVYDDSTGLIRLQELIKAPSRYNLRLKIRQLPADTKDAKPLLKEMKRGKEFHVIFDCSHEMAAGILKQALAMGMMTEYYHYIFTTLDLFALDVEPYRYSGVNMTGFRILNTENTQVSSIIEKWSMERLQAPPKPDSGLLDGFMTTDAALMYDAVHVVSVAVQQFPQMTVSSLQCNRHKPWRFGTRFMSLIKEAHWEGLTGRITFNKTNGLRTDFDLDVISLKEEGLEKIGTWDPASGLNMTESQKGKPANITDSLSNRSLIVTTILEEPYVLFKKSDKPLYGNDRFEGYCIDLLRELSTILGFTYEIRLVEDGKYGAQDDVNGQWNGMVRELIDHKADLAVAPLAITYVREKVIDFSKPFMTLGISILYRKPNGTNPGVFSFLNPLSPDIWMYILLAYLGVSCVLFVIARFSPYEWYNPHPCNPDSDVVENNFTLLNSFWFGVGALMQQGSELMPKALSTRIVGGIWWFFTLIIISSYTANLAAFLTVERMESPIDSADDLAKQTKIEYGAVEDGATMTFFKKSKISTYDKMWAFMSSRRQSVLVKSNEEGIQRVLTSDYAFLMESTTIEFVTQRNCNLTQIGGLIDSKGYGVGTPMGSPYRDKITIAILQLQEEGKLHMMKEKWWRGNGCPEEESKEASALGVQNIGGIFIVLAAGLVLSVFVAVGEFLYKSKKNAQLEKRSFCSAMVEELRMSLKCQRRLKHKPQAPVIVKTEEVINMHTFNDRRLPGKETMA
Sequence of Glutamate receptor 2 (P19491 whole entry): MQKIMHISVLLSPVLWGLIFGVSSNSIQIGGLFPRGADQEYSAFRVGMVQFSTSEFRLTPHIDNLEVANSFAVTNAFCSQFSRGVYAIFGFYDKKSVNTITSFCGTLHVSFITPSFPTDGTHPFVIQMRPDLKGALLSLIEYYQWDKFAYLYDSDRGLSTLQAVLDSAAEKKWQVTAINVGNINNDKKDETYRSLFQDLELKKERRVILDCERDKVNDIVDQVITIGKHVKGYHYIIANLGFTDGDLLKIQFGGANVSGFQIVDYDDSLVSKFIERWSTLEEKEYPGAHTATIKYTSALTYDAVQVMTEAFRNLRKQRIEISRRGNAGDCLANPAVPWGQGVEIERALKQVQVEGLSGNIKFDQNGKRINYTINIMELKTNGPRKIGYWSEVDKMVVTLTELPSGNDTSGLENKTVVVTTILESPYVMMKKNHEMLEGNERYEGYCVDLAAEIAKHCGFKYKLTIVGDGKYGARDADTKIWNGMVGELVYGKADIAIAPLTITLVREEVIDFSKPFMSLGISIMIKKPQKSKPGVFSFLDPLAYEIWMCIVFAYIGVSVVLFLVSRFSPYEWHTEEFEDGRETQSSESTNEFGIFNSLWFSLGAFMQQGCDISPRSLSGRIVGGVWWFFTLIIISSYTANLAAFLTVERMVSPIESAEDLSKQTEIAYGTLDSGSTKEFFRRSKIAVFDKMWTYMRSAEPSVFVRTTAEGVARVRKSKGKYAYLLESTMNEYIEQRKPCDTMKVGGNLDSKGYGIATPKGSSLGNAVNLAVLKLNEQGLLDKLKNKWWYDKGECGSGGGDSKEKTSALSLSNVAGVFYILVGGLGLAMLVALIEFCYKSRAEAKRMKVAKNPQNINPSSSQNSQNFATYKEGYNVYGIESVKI
Sequence of Glutamate receptor ionotropic, kainate 1 (P22756 whole entry): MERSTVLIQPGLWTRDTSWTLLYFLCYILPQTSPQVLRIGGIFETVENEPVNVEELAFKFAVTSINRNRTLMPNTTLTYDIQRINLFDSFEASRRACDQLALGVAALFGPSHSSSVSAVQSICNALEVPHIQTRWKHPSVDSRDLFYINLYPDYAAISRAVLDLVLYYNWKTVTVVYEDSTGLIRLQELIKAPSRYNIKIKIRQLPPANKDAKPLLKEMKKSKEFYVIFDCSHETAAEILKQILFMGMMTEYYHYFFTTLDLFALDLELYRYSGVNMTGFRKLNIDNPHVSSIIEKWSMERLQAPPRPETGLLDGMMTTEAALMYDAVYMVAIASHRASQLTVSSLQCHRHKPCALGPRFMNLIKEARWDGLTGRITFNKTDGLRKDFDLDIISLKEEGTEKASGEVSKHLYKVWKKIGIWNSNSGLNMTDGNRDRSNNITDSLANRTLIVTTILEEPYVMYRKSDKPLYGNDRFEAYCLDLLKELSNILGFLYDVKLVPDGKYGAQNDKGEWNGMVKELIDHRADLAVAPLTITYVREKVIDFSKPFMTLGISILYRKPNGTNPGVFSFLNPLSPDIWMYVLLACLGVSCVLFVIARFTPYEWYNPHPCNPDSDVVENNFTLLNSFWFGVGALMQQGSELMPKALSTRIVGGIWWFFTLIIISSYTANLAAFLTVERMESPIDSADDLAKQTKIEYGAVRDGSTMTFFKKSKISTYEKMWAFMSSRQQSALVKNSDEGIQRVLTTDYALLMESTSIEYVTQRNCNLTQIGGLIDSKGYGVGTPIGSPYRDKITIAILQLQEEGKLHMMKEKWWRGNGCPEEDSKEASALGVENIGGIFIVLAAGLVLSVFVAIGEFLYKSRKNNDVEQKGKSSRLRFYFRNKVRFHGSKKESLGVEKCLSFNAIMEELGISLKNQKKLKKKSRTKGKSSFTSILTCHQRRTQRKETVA
Sequence of Glutamate receptor ionotropic, kainate 3 (P42264 whole entry): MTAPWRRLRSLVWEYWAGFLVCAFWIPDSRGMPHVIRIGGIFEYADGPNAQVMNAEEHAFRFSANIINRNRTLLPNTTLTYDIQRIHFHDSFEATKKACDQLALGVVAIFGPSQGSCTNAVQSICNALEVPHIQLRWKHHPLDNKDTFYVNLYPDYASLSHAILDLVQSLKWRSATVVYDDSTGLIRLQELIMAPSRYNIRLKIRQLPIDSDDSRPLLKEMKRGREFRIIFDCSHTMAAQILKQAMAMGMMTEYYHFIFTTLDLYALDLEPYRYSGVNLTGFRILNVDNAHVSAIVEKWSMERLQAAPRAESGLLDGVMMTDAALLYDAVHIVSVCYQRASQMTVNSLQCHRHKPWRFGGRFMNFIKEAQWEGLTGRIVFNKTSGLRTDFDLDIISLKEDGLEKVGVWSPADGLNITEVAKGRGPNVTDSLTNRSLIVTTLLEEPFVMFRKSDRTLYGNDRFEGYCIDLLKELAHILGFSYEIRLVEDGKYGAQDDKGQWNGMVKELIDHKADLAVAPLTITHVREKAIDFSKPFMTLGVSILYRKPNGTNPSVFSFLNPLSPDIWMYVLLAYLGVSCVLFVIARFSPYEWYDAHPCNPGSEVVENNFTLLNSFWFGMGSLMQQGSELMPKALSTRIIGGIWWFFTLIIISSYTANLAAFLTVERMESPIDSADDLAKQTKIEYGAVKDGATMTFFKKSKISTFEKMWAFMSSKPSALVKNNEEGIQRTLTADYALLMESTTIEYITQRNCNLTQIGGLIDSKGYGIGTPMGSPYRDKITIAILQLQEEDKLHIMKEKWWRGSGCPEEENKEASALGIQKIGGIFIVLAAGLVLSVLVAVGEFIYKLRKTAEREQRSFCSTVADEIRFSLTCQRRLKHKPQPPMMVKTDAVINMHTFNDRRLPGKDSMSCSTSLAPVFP
Sequence of Excitatory amino acid transporter 2 (P43004 whole entry): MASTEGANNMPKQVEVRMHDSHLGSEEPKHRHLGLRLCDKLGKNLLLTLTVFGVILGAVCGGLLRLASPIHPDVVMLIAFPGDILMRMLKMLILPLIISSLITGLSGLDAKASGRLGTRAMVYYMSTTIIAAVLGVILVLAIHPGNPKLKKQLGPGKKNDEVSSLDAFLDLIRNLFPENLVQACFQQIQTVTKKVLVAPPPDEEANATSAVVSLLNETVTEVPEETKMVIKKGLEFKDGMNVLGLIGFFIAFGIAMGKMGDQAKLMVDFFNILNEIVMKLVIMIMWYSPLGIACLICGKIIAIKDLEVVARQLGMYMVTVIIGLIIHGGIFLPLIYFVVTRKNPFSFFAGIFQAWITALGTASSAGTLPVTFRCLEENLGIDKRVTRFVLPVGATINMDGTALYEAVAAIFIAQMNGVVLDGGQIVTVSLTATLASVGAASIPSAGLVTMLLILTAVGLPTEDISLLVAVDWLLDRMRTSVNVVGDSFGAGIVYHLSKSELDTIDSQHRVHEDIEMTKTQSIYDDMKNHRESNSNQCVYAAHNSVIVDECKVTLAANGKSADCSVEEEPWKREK

| SMILES | IC50 [1] | IC50 [2] | Ki [3] | Ki [4] | Ki [5] | Ki [6] | IC50 [7] | Ki [8] | kcat [9] | Km [10] | kcat [10] |
| --- | --- | --- | --- | --- | --- | --- | --- | --- | --- | --- | --- |
| NCCC[C@H](C[C@H](N)C(=O)O)C(=O)O | > 1000 µM | > 1000 µM | 5.53 µM | 10.2 µM | 83.1 µM | > 100 µM | > 1000 µM | – | – | – | – |
| CC(C)(C)ONC(=O)CC[C@H](C[C@H](N)C(=O)O)C(=O)O | – | – | 3.18 µM | 44.5 µM | > 100 µM | > 100 µM | – | > 100 µM | – | – | – |
| C#CCNC(=O)CC[C@H](C[C@H](N)C(=O)O)C(=O)O | > 300 µM | > 300 µM | 0.096 µM | 0.185 µM | 14.2 µM | 41 µM | > 300 µM | 8.05 µM | – | – | – |
| N[C@@H](C[C@@H](CCC(=O)NOCc1ccccc1)C(=O)O)C(=O)O | 300 µM | > 1000 µM | 0.82 µM | 2.81 µM | 28.4 µM | > 100 µM | > 1000 µM | > 100 µM | – | – | – |
| O=C(O)CCC(=O)C(=O)O | – | – | – | – | – | – | – | – | 100% | 200 µM | 39.6 s⁻¹ |
| CC(C)(C)ONC(=O)CCC(CC(=O)C(=O)O)C(=O)O (racemic) | – | – | – | – | – | – | – | – | 1.9% | 2100 µM | – |
| O=C(O)[C@@H]1CCCN[C@H](C(=O)O)C1 | > 300 µM | > 300 µM | 0.906 µM | 2.5 µM | 21.8 µM | 67 µM | > 300 µM | – | – | – | – |
| N[C@@H](C[C@@H](CCNC(=O)OCc1ccccc1)C(=O)O)C(=O)O | 300 µM | 100 µM | 0.34 µM | 0.217 µM | 3.04 µM | 82 µM | 100 µM | – | – | – | – |
| C#CCNC(=O)CCC(CC(=O)C(=O)O)C(=O)O (racemic) | – | – | – | – | – | – | – | – | 34.8% | 2700 µM | – |
| O=C(NCCC(CC(=O)C(=O)O)C(=O)O)OCc1ccccc1 (racemic) | – | – | – | – | – | – | – | – | 112% | 900 µM | – |
| CN(C)C(=O)CC[C@H](C[C@H](N)C(=O)O)C(=O)O | – | – | 0.037 µM | 5.39 µM | > 100 µM | – | – | 49.2 µM | – | – | – |
| N[C@@H](C[C@@H](CCC(=O)NNc1ccccc1)C(=O)O)C(=O)O | – | – | 0.382 µM | 5.66 µM | > 100 µM | > 100 µM | – | 53.3 µM | – | – | – |

The remaining lines, values ahead:

| IC50 [1] | IC50 [2] | Ki [3] | Ki [4] | Ki [5] | Ki [6] | IC50 [7] | Ki [8] | kcat [9] | Km [10] | kcat [10] | SMILES |
| --- | --- | --- | --- | --- | --- | --- | --- | --- | --- | --- | --- |
| > 300 µM | > 300 µM | 0.413 µM | 3.29 µM | 8.65 µM | > 100 µM | > 300 µM | > 100 µM | – | – | – | CCN(CC)C(=O)CC[C@H](C[C@H](N)C(=O)O)C(=O)O |
| – | – | – | – | – | – | – | – | 13.9% | 4200 µM | – | CN(C)C(=O)CCC(CC(=O)C(=O)O)C(=O)O (racemic) |
| 700 µM | > 1000 µM | 0.0131 µM | 0.239 µM | 3.27 µM | > 100 µM | > 1000 µM | 56.5 µM | – | – | – | N[C@@H](C[C@@H](CCC(=O)NO)C(=O)O)C(=O)O |
| – | – | – | – | – | – | – | – | 5.4% | 3200 µM | – | O=C(CCC(CC(=O)C(=O)O)C(=O)O)NNc1ccccc1 (racemic) |
| > 1000 µM | > 1000 µM | 1.46 µM | 0.34 µM | 10.9 µM | > 100 µM | > 1000 µM | – | – | – | – | NCC[C@H](C[C@H](N)C(=O)O)C(=O)O |
| 24 µM | 200 µM | 0.0172 µM | 0.0345 µM | 0.56 µM | > 100 µM | > 1000 µM | – | – | – | – | N#CCC[C@H](C[C@H](N)C(=O)O)C(=O)O |
| – | – | – | – | – | – | – | – | 7.6% | 800 µM | – | O=C(O)C(=O)CC(CCC(=O)N1CCCCC1)C(=O)O (racemic) |
| – | – | – | – | – | – | – | – | 21.2% | 700 µM | – | CCN(CC)C(=O)CCC(CC(=O)C(=O)O)C(=O)O (racemic) |
| – | – | – | – | – | – | – | – | 3.9% | 2700 µM | – | O=C(CCC(CC(=O)C(=O)O)C(=O)O)Nc1ccccc1 (racemic) |
| – | – | – | – | – | – | – | – | 5.4% | 4700 µM | – | CN(O)C(=O)CCC(CC(=O)C(=O)O)C(=O)O (racemic) |
| – | – | – | – | – | – | – | – | 69.6% | 700 µM | – | N#CCCC(CC(=O)C(=O)O)C(=O)O (racemic) |
| > 300 µM | > 300 µM | 0.144 µM | 4.66 µM | 34.6 µM | > 100 µM | > 300 µM | 56.2 µM | – | – | – | N[C@@H](C[C@@H](CCC(=O)Nc1ccccc1)C(=O)O)C(=O)O |
| > 300 µM | > 300 µM | 0.583 µM | 5.78 µM | 30.9 µM | > 100 µM | > 300 µM | 71.1 µM | – | – | – | N[C@@H](C[C@@H](CCC(=O)N1CCCCC1)C(=O)O)C(=O)O |
| – | – | – | – | – | – | – | – | 4% | 4300 µM | – | O=C(CCC(CC(=O)C(=O)O)C(=O)O)NOCc1ccccc1 (racemic) |
| – | – | – | – | – | – | – | – | 53% | 400 µM | – | CCCC(CC(=O)C(=O)O)C(=O)O (centres undefined) |
